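Protocol summary: plate cells (96-well), add compound at 5 concentrations, incubate 48 h, interpolate endpoints linearly. TGI: concentration producing complete growth inhibition.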
Columns and labels:
Test in all cases: NCI anticancer screen, dose series, 48 h
[1] = tested on: TK-10 renal
[2] = tested on: HOP-92 NSCLC
[3] = tested on: UACC-62 melanoma
[4] = tested on: BT-549 breast
[5] = tested on: T-47D breast
[6] = tested on: ACHN renal
[7] = tested on: SNB-75 CNS
[8] = tested on: SF-295 CNS
[9] = tested on: MOLT-4 leukemia
[10] = tested on: SF-268 CNS
[11] = tested on: SK-MEL-2 melanoma
[12] = tested on: PC-3 prostate
[13] = tested on: HOP-62 NSCLC
[14] = tested on: OVCAR-5 ovarian
[15] = tested on: NCI-H460 lung
[16] = tested on: M14 melanoma
[17] = tested on: RPMI-8226 leukemia
[18] = tested on: HL-60(TB) leukemia
[19] = tested on: OVCAR-3 ovarian
[20] = tested on: NCI/ADR-RES ovarian
[21] = tested on: COLO 205 colon
[22] = tested on: NCI-H522 lung
[23] = tested on: A549 NSCLC
[24] = tested on: NCI-H23 lung
[25] = tested on: OVCAR-4 ovarian
[26] = tested on: LOX IMVI melanoma
[27] = tested on: SK-MEL-28 melanoma
[28] = tested on: U251 CNS
[29] = tested on: SN12C renal
[30] = tested on: MDA-N
[31] = tested on: SNB-19 CNS
[32] = tested on: EKVX NSCLC
[33] = tested on: UO-31 renal
[34] = tested on: HT29 colon
[35] = tested on: 786-0 renal
[36] = tested on: KM12 colon
[37] = tested on: HCT-116 colon
[38] = tested on: SF-539 CNS
[39] = tested on: CAKI-1 renal
[40] = tested on: OVCAR-8 ovarian
[41] = tested on: MDA-MB-231 breast
[42] = tested on: SW-620 colon
[43] = tested on: MCF7 breast
[44] = tested on: SK-MEL-5 melanoma
[45] = tested on: HS 578T breast
[46] = tested on: MDA-MB-435
[47] = tested on: DU-145 prostate
[48] = tested on: HCT-15 colon
[49] = tested on: SR leukemia
[50] = tested on: HCC-2998 colon
[51] = tested on: UACC-257 melanoma
[52] = tested on: CCRF-CEM leukemia
[53] = tested on: IGROV1 ovarian
[54] = tested on: K-562 leukemia
[55] = tested on: RXF 393 renal
[56] = tested on: A498 renal
[57] = tested on: NCI-H226 lung
[58] = tested on: SK-OV-3 ovarian
[59] = tested on: MALME-3M melanoma

## Cc1ccc(/C=C/C(=O)Oc2ccc(/C=C3\CCC/C(=C\c4ccc(OC(=O)/C=C/c5ccc(C)cc5)cc4)C3=O)cc2)cc1
[1]
  TGI: > 100 µM
[2]
  TGI: > 100 µM
[3]
  TGI: > 100 µM
[4]
  TGI: > 100 µM
[5]
  TGI: > 100 µM
[6]
  TGI: > 100 µM
[7]
  TGI: 36.3 µM
[8]
  TGI: > 100 µM
[9]
  TGI: > 100 µM
[10]
  TGI: > 100 µM
[11]
  TGI: > 100 µM
[12]
  TGI: > 100 µM
[13]
  TGI: > 100 µM
[14]
  TGI: > 100 µM
[15]
  TGI: > 100 µM
[16]
  TGI: > 100 µM
[17]
  TGI: > 100 µM
[18]
  TGI: > 100 µM
[19]
  TGI: > 100 µM
[20]
  TGI: > 100 µM
[21]
  TGI: > 100 µM
[22]
  TGI: > 100 µM
[23]
  TGI: > 100 µM
[24]
  TGI: > 100 µM
[25]
  TGI: > 100 µM
[26]
  TGI: > 100 µM
[27]
  TGI: > 100 µM
[28]
  TGI: > 100 µM
[29]
  TGI: > 100 µM
[30]
  TGI: > 100 µM
[31]
  TGI: > 100 µM
[32]
  TGI: > 100 µM
[33]
  TGI: > 100 µM
[34]
  TGI: > 100 µM
[35]
  TGI: 81 µM
[36]
  TGI: > 100 µM
[37]
  TGI: > 100 µM
[38]
  TGI: > 100 µM
[39]
  TGI: > 100 µM
[40]
  TGI: > 100 µM
[41]
  TGI: > 100 µM
[42]
  TGI: > 100 µM
[43]
  TGI: > 100 µM
[44]
  TGI: > 100 µM
[45]
  TGI: > 100 µM
[46]
  TGI: > 100 µM
[47]
  TGI: > 100 µM
[48]
  TGI: > 100 µM
[49]
  TGI: 96.4 µM
[50]
  TGI: > 100 µM
[51]
  TGI: > 100 µM
[52]
  TGI: > 100 µM

## CCOC(=O)c1[nH]cc(C)c1-c1cccn1-c1ccc(Cl)cc1[N+](=O)[O-]
[1]
  TGI: 41.7 µM
[2]
  TGI: 51.9 µM
[53]
  TGI: 49.9 µM
[54]
  TGI: 53.3 µM
[3]
  TGI: 48.2 µM
[4]
  TGI: 83.7 µM
[5]
  TGI: > 100 µM
[6]
  TGI: > 100 µM
[7]
  TGI: 56.1 µM
[8]
  TGI: 83 µM
[9]
  TGI: 46.4 µM
[10]
  TGI: 61.5 µM
[11]
  TGI: 39.2 µM
[12]
  TGI: 64.9 µM
[13]
  TGI: 44.9 µM
[14]
  TGI: > 100 µM
[15]
  TGI: 48 µM
[16]
  TGI: 41 µM
[55]
  TGI: 33.5 µM
[19]
  TGI: 29.5 µM
[20]
  TGI: 52.9 µM
[21]
  TGI: 38.2 µM
[22]
  TGI: 34.9 µM
[23]
  TGI: 92.9 µM
[24]
  TGI: > 100 µM
[25]
  TGI: > 100 µM
[26]
  TGI: 31.3 µM
[27]
  TGI: 55.7 µM
[28]
  TGI: 33.1 µM
[29]
  TGI: 64.7 µM
[30]
  TGI: 69.6 µM
[32]
  TGI: 88.4 µM
[33]
  TGI: 54.9 µM
[34]
  TGI: 30.7 µM
[35]
  TGI: 36.1 µM
[36]
  TGI: 52.9 µM
[37]
  TGI: 30.4 µM
[38]
  TGI: 43.9 µM
[39]
  TGI: > 100 µM
[40]
  TGI: 78.9 µM
[41]
  TGI: 27.5 µM
[42]
  TGI: > 100 µM
[56]
  TGI: > 100 µM
[43]
  TGI: > 100 µM
[44]
  TGI: 28.1 µM
[45]
  TGI: 51.2 µM
[46]
  TGI: 56.6 µM
[47]
  TGI: > 100 µM
[48]
  TGI: > 100 µM
[50]
  TGI: 66.3 µM
[51]
  TGI: 67.8 µM
[52]
  TGI: 64.3 µM
[57]
  TGI: 46.2 µM

## COC1/C=C/C=C(/C)Cc2cc(O)c(Cl)c(c2)N(C)C(=O)CC(OC(=O)C(C)C)C2(C)OC2C(C)C2CC1(O)NC(=O)O2 (stereo not drawn)
[1]
  TGI: > 65.2 µM
[2]
  TGI: > 100 µM
[53]
  TGI: > 100 µM
[54]
  TGI: > 100 µM
[3]
  TGI: > 100 µM
[4]
  TGI: 49.4 µM
[5]
  TGI: > 100 µM
[6]
  TGI: > 100 µM
[7]
  TGI: 2.08 µM
[8]
  TGI: > 100 µM
[9]
  TGI: > 100 µM
[10]
  TGI: 44.2 µM
[11]
  TGI: > 43.6 µM
[12]
  TGI: > 100 µM
[13]
  TGI: > 100 µM
[14]
  TGI: > 71.2 µM
[17]
  TGI: > 100 µM
[18]
  TGI: > 100 µM
[55]
  TGI: > 100 µM
[58]
  TGI: > 100 µM
[19]
  TGI: > 100 µM
[21]
  TGI: 0.0104 µM
[22]
  TGI: < 0.01 µM
[23]
  TGI: > 100 µM
[24]
  TGI: < 0.01 µM
[25]
  TGI: < 0.01 µM
[26]
  TGI: > 100 µM
[59]
  TGI: > 100 µM
[28]
  TGI: > 43.9 µM
[29]
  TGI: > 44.7 µM
[30]
  TGI: < 0.01 µM
[31]
  TGI: > 100 µM
[32]
  TGI: > 100 µM
[33]
  TGI: > 100 µM
[34]
  TGI: < 0.01 µM
[37]
  TGI: > 100 µM
[39]
  TGI: > 100 µM
[40]
  TGI: > 100 µM
[41]
  TGI: > 42.3 µM
[42]
  TGI: > 100 µM
[43]
  TGI: > 100 µM
[44]
  TGI: < 0.0116 µM
[45]
  TGI: > 100 µM
[46]
  TGI: > 100 µM
[49]
  TGI: > 55.4 µM
[51]
  TGI: > 100 µM
[52]
  TGI: > 100 µM
[57]
  TGI: > 100 µM

## O=C(c1ccccc1)N1CCN(C(=S)NC2CCCCC2)C1=S
[1]
  TGI: 62 µM
[2]
  TGI: 36.7 µM
[53]
  TGI: 60.8 µM
[54]
  TGI: 96.8 µM
[3]
  TGI: 35.6 µM
[4]
  TGI: 44.2 µM
[5]
  TGI: 53.1 µM
[6]
  TGI: 58 µM
[7]
  TGI: 31.6 µM
[8]
  TGI: 54.4 µM
[9]
  TGI: 56 µM
[10]
  TGI: 42.5 µM
[11]
  TGI: 14.9 µM
[13]
  TGI: 37.3 µM
[14]
  TGI: 52.5 µM
[15]
  TGI: 49.5 µM
[16]
  TGI: 31.3 µM
[18]
  TGI: 50.3 µM
[58]
  TGI: 65.6 µM
[19]
  TGI: 30.7 µM
[20]
  TGI: 43.6 µM
[21]
  TGI: 34 µM
[22]
  TGI: 30.6 µM
[23]
  TGI: 30.6 µM
[24]
  TGI: 36.1 µM
[25]
  TGI: 40.8 µM
[26]
  TGI: 31.1 µM
[27]
  TGI: 31.2 µM
[59]
  TGI: 32.1 µM
[28]
  TGI: 21.6 µM
[29]
  TGI: 40 µM
[30]
  TGI: 42.8 µM
[32]
  TGI: 38.3 µM
[33]
  TGI: 30.5 µM
[34]
  TGI: 44.1 µM
[35]
  TGI: 52.2 µM
[36]
  TGI: 30.9 µM
[37]
  TGI: 32.6 µM
[38]
  TGI: 27.7 µM
[39]
  TGI: 62.4 µM
[40]
  TGI: 32.9 µM
[41]
  TGI: 21.1 µM
[42]
  TGI: 55.6 µM
[56]
  TGI: 43.3 µM
[43]
  TGI: 48.2 µM
[44]
  TGI: 34.4 µM
[45]
  TGI: 50.3 µM
[46]
  TGI: 38 µM
[47]
  TGI: 57.9 µM
[48]
  TGI: 33.2 µM
[49]
  TGI: 88.7 µM
[50]
  TGI: 33.1 µM
[51]
  TGI: 38.6 µM
[52]
  TGI: 45.1 µM
[57]
  TGI: 36.1 µM

Reference: PubChem BioAssay (NCI)
